Assay results taken from patent US20080248032A1, “COMPOSITIONS AND METHODS FOR PROTECTION AGAINST CARDIAC AND/OR CENTRAL NERVOUS SYSTEM TISSUE INJURY BY INHIBITING SPHINGOSINE-1-PHOSPHATE LYASE” (CHILDREN'S HOSPITAL & RESEARCH CENTER AT OAKLAND, priority 2006, published 2008).
“And” between values parts separate entries of the source, which are not always exact repeats. Equal values may be shown once.

Columns and labels:
[1] = tested on: HEK293 kidney cells stably overexpressing human SPL (hSPL); assay: Viability by MTT assay with daunorubicin, vector vs hSPL cells; format: cell-based; conditions: hSPL cells vs vector control; FIG. 2
Description: In an additional experiment, HEK293 cells expressing human SPL or vector control were treated with daunorubicin (DNR), and viability was determined by MTT assay. This assay relies on reduction of 3-(4,5-dimethylthiazol-2-yl)-2,5-diphenyl tetrazolium bromide (MTT reagent) by viable cells.

[2] = tested on: SPL induced apoptosis; conditions: cells overexpressing SPL; cited from earlier work
[3] = tested on: bst1Δ cells; assay: Sphingosine sensitivity of yeast growth, bst1Δ strain; format: cell-based, Saccharomyces cerevisiae; conditions: concentrations as low as 10 μM sphingosine
Text: (§1) A further test for SPL activity may be based upon functional complementation in the bst1Δ strain. It has been found, within the context of the present invention, that bst1Δ cells are highly sensitive to D-erythro-sphingosine. […] Such a level of sphingosine has no effect on the growth of wildtype cells.
(§2) A further test for SPL activity may be based upon functional complementation in the bst1Δ strain of Saccharomyces cerevisiae (Saba et al., 1997 J. Biol. Chem. 272:26087). It was been found, within the context of the presently disclosed embodiments, that bst1Δ cells were highly sensitive to D-erythro-sphingosine. […] Such a level of sphingosine had no effect on the growth of wildtype cells.

[4] = tested on: wildtype cells; assay: Sphingosine sensitivity of yeast growth, wildtype; format: cell-based, Saccharomyces cerevisiae; conditions: 10 μM sphingosine
Text: as §1, §2

[5] = tested on: HEK294 cells expressing human SPL cDNA construct (hSPL); assay: Viability by MTT assay with doxorubicin, vector vs hSPL cells; format: cell-based; conditions: cells overexpressing SPL vs pcDNA3 vector; 24 h or 48 h; FIG. 1
Description: HEK294 cells expressing either pcDNA3 vector (PC) or a human SPL cDNA construct (hSPL) were incubated for 24 h (black bars) or 48 h (white bars) with doxorubicin, harvested and viability was determined by MTT assay. (Mosmann, J Immunol Methods, 1983, 65(1-2): 55-63).

[6] = tested on: ischemia/reperfusion (I/R) injury; assay: Langendorff isolated heart ischemia/reperfusion, hearts from THI-treated mice; format: in vivo, C57BL6 male mice
Description: C57BL6 male mice were given THI in the water supply for 3 days. […] This example describes use of an isolated perfused heart model system for assessing cardioprotective effects of SPL inhibitors. […] Platinum electrodes connected to a stimulus generator are used to pace hearts at 360 beats/min. […] The balloon is inserted through the left atrium into the left ventricle, and pressures are recorded continuously on a chart recorder. Coronary flow is measured by collecting effluent from the coronary sinus. Noninvasive measurement of LV size and function are performed using standard echocardiographic methods in unanesthetized mice. LV dimensions, fractional shortening and ejection fraction are calculated before and at the end of a treatment period, before sacrifice in all animals.

COc1cccc2c1C(=O)c1c(O)c3c(c(O)c1C2=O)C[C@@](O)(C(C)=O)C[C@@H]3O[C@H]1C[C@H](N)[C@H](O)[C@H](C)O1 [daunorubicin]
sensitivity to daunorubicin (viability, MTT) [1]: more sensitive

C[S+]([O-])c1ccc(-c2nc(-c3ccncc3)c(-c3ccc(F)cc3)[nH]2)cc1 (centres unmarked) [SB203580]
effect on SPL induced apoptosis [2]: attenuation

CCCCCCCCCCCCC/C=C/[C@@H](O)[C@@H](N)CO [sphingosine, D-erythro-sphingosine]
growth of bst1Δ cells [3]: completely inhibit
growth of wildtype cells [4]: no effect

COc1cccc2c1C(=O)c1c(O)c3c(c(O)c1C2=O)C[C@@](O)(C(=O)CO)C[C@@H]3O[C@H]1C[C@H](N)[C@H](O)[C@H](C)O1 [doxorubicin]
cell survival in the presence of doxorubicin [5]: significantly reduced

Cc1ccc(C(=O)Cn2c3c(sc2=N)CCCC3)cc1 [pifithrin α]
effect on SPL induced apoptosis [2]: attenuation

CC(=O)c1nc(C(O)C(O)C(O)CO)c[nH]1 (centres unmarked) [THI, 2-acetyl-4-tetrahydroxybutylimidazole]
size of infarction (tissue uptake of tetrazolium red, TTC) ([6]; after 50 min ischemia, 40 min reperfusion, control heart 35%): 17%
LVEDP (LV end-diastolic pressure) ([6]; after 50 min no-flow ischemia, 40 min reperfusion, control heart 52): 34 mmHg
LVDP % Recovery, Ave. ([6]; average of 3 animals): 59.2%
LVDP Baseline, Ave. ([6]; average of 3 animals): 133.0 mmHg
LVDP Reperf. 40′, Ave. ([6]; average of 3 animals): 79.7 mmHg
LVDP (Left Ventricular Developed Pressure), Reperf. 40′ ([6]; individual animals, 50 min no-flow ischemia, 40 min reperfusion): 52 mmHg and 88 mmHg and 99 mmHg
LVDP % Recovery ([6]; individual animals, Reperf. 40′ vs Baseline): 42.6% and 64.2% and 70.7%
LVDP (Left Ventricular Developed Pressure), Baseline ([6]; individual animals, before ischemia): 122 mmHg and 137 mmHg and 140 mmHg
